Reference: paper PMC10584170, “Machine learning-based phenotypic imaging to characterise the targetable biology of Plasmodium falciparum male gametocytes for the development of transmission-blocking antimalarials” (PLOS Pathogens, 2023)

How the values were obtained:
[1] = system: P. falciparum male gametocytes; experiment: P. falciparum Dual Gamete Formation Assay (PfDGFA), male readout (exflagellation); assay type: cell-based, Plasmodium falciparum NF54; conditions: for % inhibition male (individual replicates) R1: replicate R1; for % inhibition male (individual replicates) R4: replicate R4; for Average inhibition male (%): average of replicates; for % inhibition male (individual replicates) R3: replicate R3; for Activity: hit = >50% inhibition in male or female readout in at least 3 replicates, 0 = no class assigned
In short: (§1)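 Day-14 NF54 gametocytes were incubated with compound for 24 h at 37°C under 1% O2/3% CO2/96% N2. Gametogenesis was triggered with ookinete medium (0.1 μM xanthurenic acid) plus Cy3-anti-Pfs25, and exflagellation was imaged by brightfield after cooling to 4°C then 28°C. Females were imaged by Pfs25 fluorescence 24 h later at 28°C.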

[2] = system: P. falciparum female gametocytes; experiment: P. falciparum Dual Gamete Formation Assay (PfDGFA), female readout (Pfs25-positive female gametes); assay type: cell-based, Plasmodium falciparum NF54; conditions: for % inhibition female (individual replicates) R1: replicate R1; for % inhibition female (individual replicates) R3: replicate R3; for % inhibition female (individual replicates) R4: replicate R4; for Average inhibition female (%): average of replicates
In short: as §1

[3] = PfDGFA at 2µM, 24h preincubation with gametocytes prior to induction of gametogenesis
[4] = PfDGFA at 2µM, 24h preincubation
[5] = 2µM, 24h preincubation with gametocytes prior to induction of gametogenesis
[6] = 2µM, 24h preincubation, number of replicates with >50% inhibition in the male readout
[7] = 2µM, 24h preincubation, number of replicates with >50% inhibition in the female readout
[8] = 2µM, 24h preincubation, hits selected on >50% inhibition in the male readout across replicates
[9] = 2µM, 24h preincubation, hits selected on >50% inhibition in the female readout across replicates
[10] = PfDGFA at 2µM, 24h preincubation with gametocytes

Row | SMILES | Average inhibition male (%) [1, 5] [%] | % inhibition male (individual replicates) R1 [1, 5] [%] | % inhibition male (individual replicates) R3 [1, 5] [%] | % inhibition male (individual replicates) R4 [1, 5] [%] | HitlevelM [1, 6] | Average inhibition female (%) [2, 5] [%] | % inhibition female (individual replicates) R1 [2, 5] [%] | % inhibition female (individual replicates) R3 [2, 5] [%] | % inhibition female (individual replicates) R4 [2, 5] [%] | HitlevelF [2, 7] | other results
1 | OCc1c(Cl)cc(Cl)cc1CNCCCNc1nc2ccccc2[nH]1 [TCMDC-140012] | – | – | – | – | – | – | – | – | – | – | % inhibition male (individual replicates) R1 [1, 3]: -9.5%; % inhibition male (individual replicates) R4 [1, 3]: -7.6%; Average inhibition male (%) [1, 4]: -5.6%; % inhibition female (individual replicates) R1 [2, 3]: -1.6%; % inhibition female (individual replicates) R3 [2, 3]: -10.9%; % inhibition female (individual replicates) R4 [2, 3]: -3.1%; Average inhibition female (%) [2, 4]: -6.6%
2 | Nc1ccc2[nH]cc(C3CCN(CCC4CCN(C(=O)/C=C/c5ccc(Cl)c(Cl)c5)CC4)CC3)c2n1 [TCMDC-140062] | 34.7 | 41.7 | -5.5 | 54.9 | 1 | 24.0 | 25.9 | 21.4 | 19.8 | 0 | –
3 | O=C(/C=C/c1ccc(Cl)c(Cl)c1)N1CCC(CN2CCC(c3c[nH]c4ccncc34)CC2)CC1 [TCMDC-140074] | 29.9 | 24.9 | -2.0 | 40.2 | 1 | 19.7 | 24.3 | 8.2 | 6.7 | 0 | –
4 | COc1cc(C(=O)NC2CCN(Cc3ccccc3)CC2)ccc1-c1nc2cc(Cl)c(Cl)cc2[nH]1 [TCMDC-140078] | 4.4 | 13.3 | 2.8 | 2.9 | – | 6.4 | 17.0 | -8.0 | 18.5 | – | HitlevelM [1, 8]: 0; Activity [1, 4]: 0; HitlevelF [2, 9]: 0
5 | CN(C)CCCOc1cccc(CCNCc2cccc(Oc3ccc(Cl)cc3)c2)c1.O=C(O)C(F)(F)F [TCMDC-140091] | 24.7 | 7.1 | 12.3 | 44.2 | – | 6.3 | 16.6 | -0.66 | -7.8 | – | HitlevelM [1, 8]: 0; Activity [1, 4]: 0; HitlevelF [2, 9]: 0
6 | CC(=O)Nc1ccc2[nH]cc(C3CCN(CC4CCC(NC(=O)/C=C/c5ccccc5Cl)CC4)CC3)c2n1 (stereo not drawn) [TCMDC-140111] | 33.8 | 38.4 | – | 14.3 | 0 | 28.1 | 31.7 | 20.9 | 26.6 | 0 | –
7 | CC(=O)Nc1ccc2[nH]cc(C3CCN(CC4CCN(C(=O)/C=C/c5ccc(Cl)c(Cl)c5)CC4)CC3)c2n1 [TCMDC-140112] | 36.8 | 41.7 | 26.0 | 45.6 | 0 | 33.3 | 35.7 | 28.7 | 36.0 | 0 | –
8 | CC(=O)Nc1ccc2[nH]cc(C3CCN(CC4CCC(NC(=O)/C=C/c5ccc(Cl)c(Cl)c5)CC4)CC3)c2n1 (stereo not drawn) [TCMDC-140114] | 48.3 | 53.7 | 39.7 | 57.6 | 2 | 33.1 | 26.2 | 29.8 | 41.8 | 0 | –
9 | Nc1cc2c(C3CCN(CC4CCN(C(=O)/C=C/c5ccc(Cl)c(Cl)c5)CC4)CC3)c[nH]c2cn1 [TCMDC-140133] | 52.8 | 50.4 | 47.4 | 52.9 | 3 | 13.5 | 13.3 | 3.5 | 10.0 | 0 | –
10 | O=C(/C=C/c1c(Cl)cccc1Cl)NC1CCC(CN2CCC(c3c[nH]c4ccncc34)CC2)CC1 (stereo not drawn) [TCMDC-140220] | 43.5 | 44.6 | 17.7 | 42.9 | – | 10.7 | 11.8 | 11.4 | 18.8 | – | HitlevelM [1, 8]: 1; Activity [1, 4]: 0; HitlevelF [2, 9]: 0
11 | CN(C)CCCOc1ccccc1CN1CC[C@H](NC(=O)c2ccc(Cl)c(Cl)c2)C1.O=C(O)C(F)(F)F [TCMDC-140310] | 6.1 | 4.0 | – | 4.7 | – | 10.5 | 10.3 | 9.3 | 14.4 | – | HitlevelM [1, 8]: 0; Activity [1, 4]: 0; HitlevelF [2, 9]: 0
12 | Cc1ccc2cc(NC(=O)CCCCCCCON3C(N)=NC(N)=NC34CCCCC4)ccc2n1.O=C(O)C(F)(F)F [TCMDC-140377] | – | – | – | – | – | – | – | – | – | – | % inhibition male (individual replicates) R1 [1, 3]: -16.0%; % inhibition male (individual replicates) R3 [1, 3]: -37.7%; % inhibition male (individual replicates) R4 [1, 3]: -32.5%; Average inhibition male (%) [1, 4]: -24.7%; % inhibition female (individual replicates) R1 [2, 3]: 7.6%; % inhibition female (individual replicates) R3 [2, 3]: -9.1%; % inhibition female (individual replicates) R4 [2, 3]: 0.33%; Average inhibition female (%) [2, 4]: 0.7%
13 | Cc1cc(CNCCCCCCNCc2ccc(-c3ccccc3)cc2)ccc1O [TCMDC-140412] | – | – | – | – | – | – | – | – | – | – | % inhibition male (individual replicates) R1 [1, 3]: 6.5%; % inhibition male (individual replicates) R4 [1, 3]: 7.3%; Average inhibition male (%) [1, 4]: 9.5%; % inhibition female (individual replicates) R1 [2, 3]: 8.1%; % inhibition female (individual replicates) R3 [2, 3]: -7.2%; % inhibition female (individual replicates) R4 [2, 3]: 4.6%; Average inhibition female (%) [2, 4]: 1.3%
14 | Cc1cc(CNCCCCCCCNCc2ccc(-c3ccccc3)cc2)ccc1O [TCMDC-140415] | – | – | – | – | – | – | – | – | – | – | % inhibition male (individual replicates) R1 [1, 3]: 37.4%; % inhibition male (individual replicates) R3 [1, 3]: 30.2%; % inhibition male (individual replicates) R4 [1, 3]: 70.9%; Average inhibition male (%) [1, 4]: 52.6%; % inhibition female (individual replicates) R1 [2, 3]: 15.4%; % inhibition female (individual replicates) R3 [2, 3]: -2.4%; % inhibition female (individual replicates) R4 [2, 3]: -10.0%; Average inhibition female (%) [2, 4]: 3.6%
15 | NCc1cccc(-c2ccccc2CNC2CCN(Cc3ccccc3)CC2)c1.O=C(O)C(F)(F)F [TCMDC-140467] | 3.4 | -0.12 | -13.3 | 18.9 | 0 | 24.8 | 22.3 | 3.0 | 28.3 | 0 | –
16 | O=C(O)C(F)(F)F.c1ccc(CN2CCC(NCc3ccc(-c4cccc(CNC5CCCC5)c4)cc3)CC2)cc1 [TCMDC-140491] | 4.9 | 9.8 | – | -11.4 | – | 15.2 | 11.0 | 20.4 | 13.9 | – | HitlevelM [1, 8]: 0; Activity [1, 4]: 0; HitlevelF [2, 9]: 0
17 | CC(C)CNCc1ccc(-c2cccc(CN(CCN(C)C)C(=O)CCC3CCCC3)c2)cc1.O=C(O)C(F)(F)F [TCMDC-140553] | – | – | – | – | – | – | – | – | – | – | Average inhibition male (%) [1, 10]: 71.6%; % inhibition male (individual replicates) R1 [1, 10]: 58.5%; % inhibition male (individual replicates) R3 [1, 10]: 51.6%; % inhibition male (individual replicates) R4 [1, 10]: 94.9%; HitlevelM ([1]; number of replicates with >50% inhibition in the male readout, 2µM): 4; Average inhibition female (%) [2, 10]: 30.3%; % inhibition female (individual replicates) R1 [2, 10]: 23.2%; % inhibition female (individual replicates) R3 [2, 10]: 20.6%; % inhibition female (individual replicates) R4 [2, 10]: 42.3%; HitlevelF ([2]; number of replicates with >50% inhibition in the female readout, 2µM): 0
